Laboratory results reported in patent publication EP2818471A1, “Nitrogen bicyclic compounds as inhibitors for Scyl1 and Grk5” (Max-Planck-Gesellschaft zur Förderung der Wissenschaften …, priority 2013, dated 2014).

System: beta-TC6 cells
Test: Insulin HTRF assay, relative activity Ar normalized to sunitinib
Type: cell-based
Settings: Mus musculus, normalized to positive control sunitinib (5 µM = 100%), Table 10
In short: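 beta-TC6 cells (15k/well) were seeded for 24 or 48 h, washed and exposed to test compound or sunitinib (5 µM f.c.) in induction buffer with 0.5% DMSO for 2, 3 or 4 h at 37°C. Secreted insulin in the supernatant was measured by two-antibody HTRF after 120 min at RT. Ar = (V − 0% control)/(100% control − 0% control) × 100.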

Row | Structure (SMILES) | Emax
1 | COc1ccc(-c2ccc3nnc(-c4ccoc4)n3c2)cc1 [compound 220, 3-(3-furyl)-6-(4-methoxyphenyl)-[1,2,4]triazolo[4,3-a]pyridine] | 50 to 100%
2 | COc1cccc(CC(=O)Nc2cnc3cnc(-c4ccccc4CN(C)C)cn23)c1 [compound 252, N-[6-[2-(dimethylaminomethyl)phenyl]imidazo[1,2-a]pyrazin-3-yl]-2-(3-methoxyphenyl)acetamide] | 20 to 50%
3 | CSc1ccc(-c2cn3c(-c4cccnc4)cnc3cn2)cc1 [compound 317, 6-(4-methylsulfanylphenyl)-3-(3-pyridyl)imidazo[1,2-a]pyrazine] | 20 to 50%
4 | O=C(NC1CC1)c1ccc(-c2cn3c(-c4ccccc4)cnc3cn2)cc1 [compound 299, N-cyclopropyl-4-(3-phenylimidazo[1,2-a]pyrazin-6-yl)benzamide] | 20 to 50%
5 | c1csc(-c2cn3c(-c4cccs4)cnc3cn2)c1 [compound 424, 3,6-bis(2-thienyl)imidazo[1,2-a]pyrazine] | 50 to 100%
6 | CS(=O)(=O)c1cccc(-c2ccc3nnc(-c4ccccn4)n3c2)c1 [compound 249, 6-(3-methylsulfonylphenyl)-3-(2-pyridyl)-[1,2,4]triazolo[4,3-a]pyridine] | 20 to 50%
7 | COc1cncc(-c2cnc3ccc(Cc4ccc(F)cc4)nn23)c1 [compound 122, 6-[(4-fluorophenyl)methyl]-3-(5-methoxy-3-pyridyl)imidazo[1,2-b]pyridazine] | 20 to 50%
8 | COc1cncc(-c2ccc3nnc(-c4cccc(OC(F)(F)F)c4)n3c2)c1 [compound 192, 6-(5-methoxy-3-pyridyl)-3-[3-(trifluoromethoxy)phenyl]-[1,2,4]triazolo[4,3-a]pyridine] | 50 to 100%
9 | OCc1ccc(-c2cn3c(-c4cccc(Cl)c4)cnc3cn2)cc1 [compound 360, [4-[3-(3-chlorophenyl)imidazo[1,2-a]pyrazin-6-yl]phenyl]methanol] | 20 to 50%
10 | Clc1cccc(-c2nnc3ccc(-c4cccnc4)cn23)c1 [compound 200, 3-(3-chlorophenyl)-6-(3-pyridyl)-[1,2,4]triazolo[4,3-a]pyridine] | 50 to 100%
11 | Oc1cccc(-c2ccc3nnc(-c4ccccn4)n3c2)c1 [compound 247, 3-[3-(2-pyridyl)-[1,2,4]triazolo[4,3-a]pyridin-6-yl]phenol] | 50 to 100%
12 | O=C(NC1CC1)c1ccc(-c2cn3c(-c4ccc(O)cc4)cnc3cn2)cc1 [compound 326, N-cyclopropyl-4-[3-(4-hydroxyphenyl)imidazo[1,2-a]pyrazin-6-yl]benzamide] | 20 to 50%
13 | COc1cc(OC)cc(-c2cn3c(-c4cccc(N(C)C)c4)cnc3cn2)c1 [compound 346, 3-[6-(3,5-dimethoxyphenyl)imidazo[1,2-a]pyrazin-3-yl]-N,N-dimethyl-aniline] | 20 to 50%
14 | CSc1ccc(-c2cn3c(-c4cccc(CO)c4)cnc3cn2)cc1 [compound 377, [3-[6-(4-methylsulfanylphenyl)imidazo[1,2-a]pyrazin-3-yl]phenyl]methanol] | 20 to 50%
15 | FC(F)(F)Oc1cccc(-c2cnc3cnc(-c4cccnc4)cn23)c1 [compound 352, 6-(3-pyridyl)-3-[3-(trifluoromethoxy)phenyl]imidazo[1,2-a]pyrazine] | 20 to 50%
16 | CC(C)Oc1cccc(-c2cn3c(-c4cccs4)cnc3cn2)c1 [compound 428, 6-(3-isopropoxyphenyl)-3-(2-thienyl)imidazo[1,2-a]pyrazine] | 20 to 50%
17 | c1nc(-c2nnc3ccc(-c4ccc(N5CCOCC5)cc4)cn23)cs1 [compound 226, 4-[4-(3-thiazol-4-yl-[1,2,4]triazolo[4,3-a]pyridin-6-yl)phenyl]morpholine] | 50 to 100%
18 | Fc1ccc(-c2ccc3ncc(-c4cccs4)n3n2)cc1Cl [compound 156, 6-(3-chloro-4-fluoro-phenyl)-3-(2-thienyl)imidazo[1,2-b]pyridazine] | 20 to 50%
19 | CCOc1cccc(-c2cn3c(-c4cccc(CO)c4)cnc3cn2)c1 [compound 378, [3-[6-(3-ethoxyphenyl)imidazo[1,2-a]pyrazin-3-yl]phenyl]methanol] | 20 to 50%
20 | N#Cc1ccc(-c2ccc3nnc(-c4cccc(O)c4)n3c2)cc1 [compound 206, 4-[3-(3-hydroxyphenyl)-[1,2,4]triazolo[4,3-a]pyridin-6-yl]benzonitrile] | 50 to 100%
21 | O=C(c1ccc(-c2ccc3nnc(-c4cccc(C(F)(F)F)c4)n3c2)cc1)N1CCOCC1 [compound 212, morpholino-[4-[3-[3-(trifluoromethyl)phenyl]-[1,2,4]triazolo[4,3-a]pyridin-6-yl]phenyl]methanone] | 20 to 50%
22 | COc1cc(OC)cc(-c2cn3c(-c4ccsc4)cnc3cn2)c1 [compound 323, 6-(3,5-dimethoxyphenyl)-3-(3-thienyl)imidazo[1,2-a]pyrazine] | 20 to 50%
23 | CC(=O)c1cccc(-c2cnc3cnc(-c4cccc(F)c4)cn23)c1 [compound 410, 1-[3-[6-(3-fluorophenyl)imidazo[1,2-a]pyrazin-3-yl]phenyl]ethanone] | 20 to 50%

Row | Structure (SMILES) | Emax
24 | Cc1ccccc1-c1nnc2ccc(-c3cccc(C(=O)NCCO)c3)cn12 [compound 224, N-(2-hydroxyethyl)-3-[3-(o-tolyl)-[1,2,4]triazolo[4,3-a]pyridin-6-yl]benzamide] | 10 to 20%
25 | COc1cccc(CC(=O)Nc2cnc3cnc(-c4cnn(C)c4)cn23)c1 [compound 261, 2-(3-methoxyphenyl)-N-[6-(1-methylpyrazol-4-yl)imidazo[1,2-a]pyrazin-3-yl]acetamide] | 10 to 20%
26 | O=C(NCCO)c1ccc(-c2cn3c(-c4ccsc4)cnc3cn2)cc1 [compound 321, N-(2-hydroxyethyl)-4-[3-(3-thienyl)imidazo[1,2-a]pyrazin-6-yl]benzamide] | 10 to 20%
27 | OCc1ccc(-c2cnc3cnc(-c4ccc(Cl)cc4Cl)cn23)cc1 [compound 374, [4-[6-(2,4-dichlorophenyl)imidazo[1,2-a]pyrazin-3-yl]phenyl]methanol] | 20 to 50%
28 | c1cncc(-c2cnc3cnc(-c4cc5ccccc5s4)cn23)c1 [compound 316, 6-(benzothiophen-2-yl)-3-(3-pyridyl)imidazo[1,2-a]pyrazine] | 20 to 50%
29 | CS(=O)(=O)Nc1cccc(-c2cn3c(-c4ccc5ncccc5c4)cnc3cn2)c1 [compound 444, N-[3-[3-(6-quinolyl)imidazo[1,2-a]pyrazin-6-yl]phenyl]methanesulfonamide] | 20 to 50%
30 | Clc1cccc(-c2cn3c(-c4cccs4)cnc3cn2)c1 [compound 421, 6-(3-chlorophenyl)-3-(2-thienyl)imidazo[1,2-a]pyrazine] | 20 to 50%
31 | CNc1ccc2ncc(-c3cccc(C(=O)N(C)C)c3)n2n1 [compound 61, N,N-dimethyl-3-[6-(methylamino)imidazo[1,2-b]pyridazin-3-yl]benzamide] | 20 to 50%
32 | Nc1cccc(-c2ccc3nnc(-c4cccc(Cl)c4)n3c2)c1 [compound 197, 3-[3-(3-chlorophenyl)-[1,2,4]triazolo[4,3-a]pyridin-6-yl]an iline] | 50 to 100%
33 | CSc1ccccc1-c1cnc2cccnn12 [compound 86, 3-(2-methylsulfanylphenyl)imidazo[1,2-b]pyridazine] | 50 to 100%
34 | O=C(Nc1cnc2cnc(-c3ccsc3)cn12)c1cccs1 [compound 263, N-[6-(3-thienyl)imidazo[1,2-a]pyrazin-3-yl]thiophene-2-carboxamide] | 20 to 50%
35 | COc1ccc(-c2nnc3ccc(-c4ccc(S(C)(=O)=O)cc4)cn23)cc1OC [compound 186, 3-(3,4-dimethoxyphenyl)-6-(4-methylsulfonylphenyl)-[1,2,4]triazolo[4,3-a]pyridine] | 10 to 20%
36 | O=C(O)CCc1ccc(-c2cnc3cnc(-c4cccc(Cl)c4)cn23)cc1 [compound 329, 3-[4-[6-(3-chlorophenyl)imidazo[1,2-a]pyrazin-3-yl]phenyl]propanoic acid] | 20 to 50%
37 | Clc1cccc(-c2cn3c(-c4ccc5c(c4)OCO5)cnc3cn2)c1 [compound 303, 3-(1,3-benzodioxol-5-yl)-6-(3-chlorophenyl)imidazo[1,2-a]pyrazine] | 50 to 100%
38 | c1cc(-c2cn3c(-c4ccc5c(c4)OCO5)cnc3cn2)cs1 [compound 301, 3-(1,3-benzodioxol-5-yl)-6-(3-thienyl)imidazo[1,2-a]pyrazine] | 50 to 100%
39 | Clc1ccc(-c2cnc3cnc(-c4cccs4)cn23)cc1 [compound 349, 3-(4-chlorophenyl)-6-(2-thienyl)imidazo[1,2-a]pyrazine] | 20 to 50%
40 | COc1cc(-c2cnc3cnc(-c4ccc(OCCCN(C)C)nc4)cn23)ccc1O [compound 391, 4-[6-[6-[3-(dimethylamino)propoxy]-3-pyridyl]imidazo[1,2-a]pyrazin-3-yl]-2-methoxy-phenol] | 20 to 50%
41 | c1ccc(Cn2cc(-c3cn4c(-c5ccc6c(c5)OCO6)cnc4cn3)cn2)cc1 [compound 307, 3-(1,3-benzodioxol-5-yl)-6-(1-benzylpyrazol-4-yl)imidazo[1,2-a]pyrazine] | 50 to 100%
42 | CS(=O)(=O)Nc1cccc(-c2ccc3ncc(-c4ccncc4)n3n2)c1 [compound 105, N-[3-[3-(4-pyridyl)imidazo[1,2-b]pyridazin-6-yl]phenyl]methanesulfonamide] | 20 to 50%
43 | COc1cc(C#Cc2ccc3nnc(-c4ccc(OCCCN(C)C)cc4)n3c2)cc(OC)c1 [compound 239, 3-[4-[6-[2-(3,5-dimethoxyphenyl)ethynyl]-[1,2,4]triazolo[4,3-a]pyridin-3-yl]phenoxy]-N,N-dimethyl-propan-1-amine] | 20 to 50%
44 | OCc1ccc(-c2cnc3ccc(-c4cncnc4)nn23)cc1 [compound 130, [4-(6-pyrimidin-5-ylimidazo[1,2-b]pyridazin-3-yl)phenyl]methanol] | 10 to 20%
45 | COc1ccc(-c2ccc3nnc(-c4ccc(O)c(OC)c4)n3c2)cn1 [compound 216, 2-methoxy-4-[6-(6-methoxy-3-pyridyl)-[1,2,4]triazolo[4,3-a]pyridin-3-yl]phenol] | 50 to 100%
